In brackets after ≈: the same amount, converted by molar mass. Activity calls are given as the source filed them. The rule behind the calls is not given here.
Columns and labels:
Escherichia coli [1] = experiment: Antibacterial activity against Escherichia coli ATCC 25922 incubated for 16 to 18 hrs by broth dilution assay; assay type: functional; details: time 16-18 hrs
Bacillus subtilis = experiment: Antibacterial activity against Bacillus subtilis 6633 incubated for 16 to 18 hrs by broth dilution assay; assay type: functional; details: time 16-18 hrs
[2] = Retention time of compound by RP-HPLC method; assay type: physicochemical
Staphylococcus aureus [3] = experiment: Antibacterial activity against Staphylococcus aureus ATCC 25923 incubated for 16 to 18 hrs by broth dilution assay; assay type: functional; details: time 16-18 hrs
Staphylococcus aureus [4] = experiment: Antibacterial activity against methicillin-resistant Staphylococcus aureus BAA-44 incubated for 16 to 18 hrs by broth dilution assay; assay type: functional; details: time 16-18 hrs
[5] = Hemolytic activity in human RBC at 100 uM measured after 40 mins by absorbance based assay relative to control; assay type: toxicity, cell-based, Erythrocyte; details: human red blood cells, read-out: Activity
Pseudomonas aeruginosa = experiment: Antibacterial activity against Pseudomonas aeruginosa ATCC BAA-427 incubated for 16 to 18 hrs by broth dilution assay; assay type: functional; details: time 16-18 hrs
Klebsiella pneumoniae = experiment: Antibacterial activity against Klebsiella pneumoniae ATCC 27736 incubated for 16 to 18 hrs by broth dilution assay; assay type: functional; details: time 16-18 hrs
[6] = Hemolytic activity in human RBC measured after 40 mins by absorbance based assay; assay type: toxicity, cell-based, Erythrocyte; details: human red blood cells
Staphylococcus aureus [7] = experiment: Antibacterial activity against methicillin-resistant Staphylococcus aureus 33591 incubated for 16 to 18 hrs by broth dilution assay; assay type: functional; details: time 16-18 hrs
Escherichia coli [8] = experiment: Induction of membrane depolarization in Escherichia coli ATCC 25922 by diSC3-5 dye based analysis; assay type: functional, organism-based
Staphylococcus aureus [9] = experiment: Bactericidal activity against Staphylococcus aureus ATCC 25923 incubated for 16 to 18 hrs; assay type: functional; details: time 16-18 hrs
Escherichia coli [10] = experiment: Disruption of membrane integrity in Escherichia coli ATCC 25922 by PI staining based analysis; assay type: functional, organism-based
Staphylococcus aureus [11] = experiment: Antibacterial activity against Staphylococcus aureus ATCC 25923 incubated for 16 to 18 hrs in presence of 10 percent human serum by broth dilution assay; assay type: functional; details: time 16-18 hrs
Escherichia coli [12] = experiment: Disruption of plasma membrane integrity in Escherichia coli ATCC 25922 by SYTOX-Green uptake assay; assay type: functional, organism-based
[13] = Cytotoxicity against rat L6 cells assessed as cell viability at 100 uM incubated for 24 hrs by MTT assay relative to control; assay type: toxicity, cell-based; details: L6 cells, read-out: Activity
[14] = Cytotoxicity against mouse 3T3-L1 cells assessed as cell viability at 100 uM incubated for 24 hrs by MTT assay relative to control; assay type: toxicity, cell-based; details: 3T3-L1 cells, read-out: Activity
Escherichia coli [15] = experiment: Antibacterial activity against Escherichia coli ATCC 25922 incubated for 16 to 18 hrs in presence of 10 percent human serum by broth dilution assay; assay type: functional; details: time 16-18 hrs
Staphylococcus aureus [16] = experiment: Bactericidal activity against Staphylococcus aureus ATCC 25923 at MIC incubated for 45 mins by time kill assay; assay type: functional, organism-based
Staphylococcus aureus [17] = experiment: Disruption of membrane integrity in Staphylococcus aureus ATCC 25923 by PI staining based analysis; assay type: functional, organism-based
[18] = Hemolytic activity in human RBC assessed as disruption of membrane integrity by Alexa Fluor-Annexin V staining based analysis; assay type: toxicity, cell-based; details: erythrocyte
Staphylococcus aureus [19] = experiment: Disruption of plasma membrane integrity in Staphylococcus aureus ATCC 25923 by SYTOX-Green uptake assay; assay type: functional, organism-based
Staphylococcus aureus [20] = experiment: Induction of membrane depolarization in Staphylococcus aureus ATCC 25923 by diSC3-5 dye based analysis; assay type: functional, organism-based
Escherichia coli [21] = experiment: Bactericidal activity against Escherichia coli ATCC 25922 incubated for 16 to 18 hrs; assay type: functional; details: time 16-18 hrs
Escherichia coli [22] = experiment: Bactericidal activity against Escherichia coli ATCC 25922 at MIC incubated for 45 mins by time kill assay; assay type: functional, organism-based
[23] = tested on: Mycolicibacterium smegmatis; experiment: Antitubercular activity against Mycobacterium smegmatis incubated for 24 hrs by rezasurin dye based assay; assay type: functional
Escherichia coli [24] = experiment: Induction of cell membrane damage in Escherichia coli ATCC 25922 at 3 times MIC incubated for 60 mins by SEM analysis; assay type: functional, organism-based
Staphylococcus aureus [25] = experiment: Induction of cell membrane damage in Staphylococcus aureus ATCC 25923 at 3 times MIC incubated for 60 mins by SEM analysis; assay type: functional, organism-based

Compound	MIC (Escherichia coli [1])	MIC (Bacillus subtilis)	Retention_time [2]	MIC (Staphylococcus aureus [3])	MIC (Staphylococcus aureus [4])	MIC (Pseudomonas aeruginosa)	MIC (Klebsiella pneumoniae)	HC50 at 40 min [6]	MIC (Staphylococcus aureus [7])	further results
H-RLRLRLRLRLRL-OH	1.9 µM	3.8 µM	15.99 min	3.8 µM	15.3 µM	15.3 µM	30.6 µM	0.279 mM	15.3 µM	hemolysis at 40 min, 100 µM [5]: 17%
CC1(C)S[C@@H]2[C@H](NC(=O)[C@H](N)c3ccccc3)C(=O)N2[C@H]1C(=O)O [AMPICILLIN]	12.5 µM (≈ 4.37 µg/mL)	1.6 µM (≈ 0.559 µg/mL)		3.1 µM (≈ 1.08 µg/mL)	25 µM (≈ 8.74 µg/mL)	25 µM (≈ 8.74 µg/mL)	100 µM (≈ 34.9 µg/mL)		12.5 µM (≈ 4.37 µg/mL)	
H-VLGRVLGRVLGR-OH	> 155 µM	> 155 µM	15.4 min	> 155 µM	> 155 µM	> 155 µM	> 155 µM	2 mM	> 155 µM	
H-KVLGKVLGKVLGKVLG-OH	3.9 µM	15.6 µM	20.12 min	7.8 µM	3.9 µM	15.6 µM	7.8 µM	2 mM	7.8 µM	Activity (Escherichia coli [8]): Active; MBC (Staphylococcus aureus [9]): 12.6 µM; Activity (Escherichia coli [10]): Active; MIC (Staphylococcus aureus [11]): 12.6 µM; Activity (Escherichia coli [12]): Active; viability at 24 h, 100 µM [13]: 75%; viability at 24 h, 100 µM [14]: 75%; MIC (Escherichia coli [15]): 3.9 µM; Activity (Staphylococcus aureus [16]): Active; Activity (Staphylococcus aureus [17]): Active; Activity [18]: Non-toxic; Activity (Staphylococcus aureus [19]): Active; Activity (Staphylococcus aureus [20]): Active; MBC (Escherichia coli [21]): 3.9 µM; Activity (Escherichia coli [22]): Active; MIC [23]: > 10 µM
H-KVLGRLKVLGRL-OH	74 µM	> 147 µM	16.81 min	> 147 µM	> 147 µM	> 147 µM	> 147 µM	2 mM	> 147 µM	
H-RLRLRLRLRLRLRL-OH	3.3 µM	3.3 µM	16.72 min	3.3 µM	13.1 µM	13.1 µM	26.2 µM	0.249 mM	13.1 µM	hemolysis at 40 min, 100 µM [5]: 20%
H-LGRLVLGRLVLGRLV-OH	7.6 µM	> 122 µM	18.77 min	15.3 µM	61.2 µM	> 122 µM	> 122 µM	2 mM	> 122 µM	
H-VLGRLVVLGRLV-OH	77.4 µM	> 155 µM	17.91 min	> 155 µM	> 155 µM	> 155 µM	> 155 µM	2 mM	> 155 µM	
H-LGRLGRLGRLGR-OH	15.5 µM	151 µM	20.45 min	> 151 µM	> 151 µM	> 151 µM	> 151 µM	2 mM	> 151 µM	
H-LGRLGRLGRLGRLGR-OH	1.9 µM	30.3 µM	16.23 min	1.9 µM	60.6 µM	60.6 µM	> 121 µM	2 mM	> 121 µM	
H-LGRLLGRLLGRLLGRL-OH	1.8 µM	1.8 µM	20.87 min	1.8 µM	1.8 µM	3.5 µM	1.8 µM	0.051 mM	1.8 µM	hemolysis at 40 min, 100 µM [5]: 95%
H-KVLGRKVLGR-OH	178 µM	> 178 µM	10.61 min	178 µM	> 178 µM	> 178 µM	> 178 µM	2 mM	> 178 µM	
H-KVLGKVLGKVLG-OH	> 165 µM	> 165 µM	15.26 min	> 165 µM	> 165 µM	> 165 µM	> 165 µM	2 mM	> 165 µM	
H-RLVRLVRLVRLV-OH	4.2 µM	2.1 µM	19.25 min	4.2 µM	4.2 µM	8.4 µM	8.4 µM	2 mM	4.2 µM	Activity (Escherichia coli [8]): Active; MBC (Staphylococcus aureus [9]): 8.4 µM; Activity (Escherichia coli [10]): Active; MIC (Staphylococcus aureus [11]): 16.8 µM; Activity (Escherichia coli [12]): Active; viability at 24 h, 100 µM [13]: 75%; viability at 24 h, 100 µM [14]: 75%; Activity (Escherichia coli [24]): Active; Activity (Staphylococcus aureus [25]): Active; MIC (Escherichia coli [15]): 16.8 µM; Activity (Staphylococcus aureus [16]): Active; Activity (Staphylococcus aureus [17]): Active; Activity [18]: Non-toxic; Activity (Staphylococcus aureus [19]): Active; Activity (Staphylococcus aureus [20]): Active; MBC (Escherichia coli [21]): 8.4 µM; Activity (Escherichia coli [22]): Active; MIC [23]: 5 µM
H-KVLGRKVLGRKVLGR-OH	29.8 µM	> 119 µM	11.73 min	29.8 µM	> 119 µM	> 119 µM	> 119 µM	2 mM	> 119 µM	
H-KVKVKVKVKVKV-OH	18.1 µM	9.1 µM	10.81 min	36.2 µM	18.1 µM	36.2 µM	72.4 µM	0.118 mM	36.2 µM	hemolysis at 40 min, 100 µM [5]: 42%
H-VLGRLVLGRL-OH	183 µM	> 183 µM	16.21 min	183 µM	> 183 µM	183 µM	183 µM	2 mM	> 183 µM	
H-LGRLVLGRLV-OH	91.4 µM	> 183 µM	16.21 min	183 µM	> 183 µM	> 183 µM	> 183 µM	2 mM	> 183 µM	
H-GRLGRLGRLGRL-OH	18.9 µM	18.9 µM	20.87 min	4.7 µM	18.9 µM	75.6 µM	> 151 µM	2 mM	18.9 µM	
H-VLGRLVLGRLVLGRL-OH	7.6 µM	> 122 µM	19.07 min	7.6 µM	61.2 µM	> 122 µM	> 122 µM	2 mM	122 µM	
H-KVKVKVKVKV-OH	21.7 µM	10.9 µM	10.88 min	21.7 µM	21.7 µM	21.7 µM	43.4 µM	0.283 mM	43.4 µM	hemolysis at 40 min, 100 µM [5]: 18%
H-GRLVGRLVGRLV-OH	155 µM	> 155 µM	13.4 min	> 155 µM	> 155 µM	155 µM	155 µM	2 mM	> 155 µM	
H-KVKVKVKVKVKVKV-OH	7.8 µM	3.8 µM	10.73 min	7.8 µM	15.5 µM	31.1 µM	7.8 µM	0.062 mM	15.5 µM	hemolysis at 40 min, 100 µM [5]: 80%
CO[C@H]1/C=C/O[C@@]2(C)Oc3c(C)c(O)c4c(O)c(c(/C=N/N5CCN(C)CC5)c(O)c4c3C2=O)NC(=O)/C(C)=C\C=C\[C@H](C)[C@H](O)[C@@H](C)[C@@H](O)[C@@H](C)[C@H](OC(C)=O)[C@@H]1C [RIFAMPIN]										MIC [23]: 0.25 µM (≈ 0.206 µg/mL)

Reference: ChEMBL document CHEMBL6087460, “Generating a Peptide Library Using the Repeats of Amino Acid Scaffolds Created by Sliding the Framework of a 7-mer Human Chemerin Segment and Discovery of Potent Antibacterial and Antimycobacterial Peptides” (J Med Chem, 2025)
